How the values were obtained:
[1] = tested on: E. coli CFT073; test: Passive and active immunization, diabetic mice, bacterial load in urine; type: in vivo; details: diabetic (STZ) mice; mAb 150 μg i.p. or LD antigen 15 μg s.c.
Procedure: (§1) The intraperitoneal injection was completed 1 day prior and 1 day after challenge with CFT073 E. coli (A07 Study for Vaccine candidate, Contract #HHSN2722010000401, Task Order #HHSN27200005, Galveston). […] Mixtures of antibodies for passive transfer were prepared as 150 μg per mouse doses in 50 μl volumes of sterile HBS. The effect of the antibodies was evaluated in two mice models that included non-diabetic and diabetic C57BI/6 mice, respectively. Mice injected with incomplete Freund's adjuvant only (IFA) were used as the control (mock) group in each model. Bacterial load in mice urine was analyzed daily over 14-days' time period starting 24 h after bacterial challenge.
Diabetic state in C57BI/6 mice was induced by the 4 days-treatment with streptozotocin (STZ) by intraperitoneal injection. Groups of 100 C57BI/6 mice were randomly divided into 5 groups of ten for diabetic and for non-diabetic states respectively. […] Bacterial load in mice urine was analyzed daily over 14-days' time starting 24 h after bacterial challenge. Genomic bacterial load was quantified in each urine sample (10 μl) by qPCR. […] For log10 transformation, zero counts (E. coli not detected) were replaced with value 1. […] After exclusion of outliers, 617 (out of initial 673, 91.6%) observations were analyzed using same model.

[2] = tested on: E. coli CFT073; test: Passive and active immunization, non-diabetic mice, bacterial load in urine; type: in vivo
Procedure: as §1
Diabetic state in C57BI/6 mice was induced by the 4 days-treatment with streptozotocin (STZ) by intraperitoneal injection. Groups of 100 C57BI/6 mice were randomly divided into 5 groups of ten for diabetic and for non-diabetic states respectively. […] Mice were challenged with CFT073 UPEC strain (1×10^6 cfu/50 μl per mouse) via intraurethral catheterization under isoflurane anesthesia. Bacterial load in mice urine was analyzed daily over 14-days' time starting 24 h after bacterial challenge. Genomic bacterial load was quantified in each urine sample (10 μl) by qPCR. Statistical analysis of the data was performed using the Generalized Estimating Equation model (GEE) (xtgee command in STATA software, StataCorp. 2015. Stata Statistical Software: Release 14. College Station, Tex.: StataCorp LP). Overall, 1400 observations were made for 100 mice over 14 days. Out of 1,400 total 237 observations were missing (no urine provided) and were excluded from subsequent analysis. The mice ID were set as a panel variable, treatment type and days as predictor variables with interaction allowed between them; and E. coli counts as an outcome variable. […] For log10 transformation, zero counts (E. coli not detected) were replaced with value 1. […] After exclusion of outliers, 617 (out of initial 673, 91.6%) observations were analyzed using same model.

[3] = tested on: Klebsiella pneumoniae; test: Inhibition of Klebsiella adhesion to surface-immobilized RNaseB; type: cell-based; details: 50 μg/ml mAb (FIG. 10)
Procedure: FIG. 10. […] Data are mean±SD (n=2 independent experiments).
(§2) Microtiter 96-well plates were coated with 20 μg/ml of yeast mannan or RNaseB (Sigma-Aldrich) in 0.02 M NaHCO3 buffer at pH 9.6. The wells were quenched with 0.2% bovine serum albumin (BSA, Sigma-Aldrich) in PBS for 20 min. Bacteria expressing FimH adhesin (OD=1 or OD=2) were first preincubated with different concentrations of mAbs for 1 h at 37° C. and then allowed to adhere to ligand-coated surface for another 1 h. After an extensive washing with PBS, plates were dried and bound bacteria were stained with 0.1% crystal violet (Becton Dickinson) for 20 min at room temperature (RT). The wells were washed with water and 50% ethanol was added to the wells. The absorbance was measured at 600 nm.

[4] = tested on: Klebsiella pneumoniae; test: Klebsiella biofilm formation on RNaseB-coated surfaces; type: cell-based; details: two Klebsiella FimH variants, 1% mannose or 50 μg/ml mAb (FIG. 11A)
Procedure: (§3) FIG. 11. […] Data (mean±SD, n=3 independent experiments). […] Data (mean±SD, n=3 independent experiments). Biofilm was quantified using the crystal violet staining method. *, P≤0.05, **, P≤0.0005 (one sample t-test).
(§4) Microtiter 96-well plates were coated with 20 μg/mL of yeast mannan or RNaseB (Sigma-Aldrich) in 0.02 M NaHCO3 buffer at pH 9.6. Bacterial strains grown overnight in 3 ml LB media were spun and washed 1× with minimal essential media (MEM, Difco). […] After washing with PBS, formed biofilms were stained with 0.1% (v/v) crystal violet (Becton Dickinson) as described above for bacterial adhesion assay. […] The wells were washed 3 times with PBS and stain for biofilm detection as described above.

[5] = tested on: Klebsiella fimbrial FimH; test: Binding of anti-E. coli FimH antibodies to Klebsiella fimbrial FimH; set-up: species or system Klebsiella pneumoniae; details: FimH^wt and FimH^S62A, 50 and 5 μg/ml mAb (FIG. 9)
Procedure: FIG. 9. Recognition of Klebsiella FimH by anti-E. coli FimH antibodies. […] Type 1 fimbriae carrying different FimH variants (FimH^wt and FimH^S62A mutant) were incubated with different concentrations of mAbs (50 and 5 μg/ml). Data shown are mean±SD of duplicates from one representative experiment.

[6] = tested on: FimH^wt:(186-201)FocH; test: Cross-interference of inhibitory mAbs binding to FimH; set-up: species or system E. coli; details: FimH pre-incubated with antibody, biotinylated mAb binding (FIG. 16)
FimH^wt:(186-201)FocH, sequence (P08191 22-179 limits assumed): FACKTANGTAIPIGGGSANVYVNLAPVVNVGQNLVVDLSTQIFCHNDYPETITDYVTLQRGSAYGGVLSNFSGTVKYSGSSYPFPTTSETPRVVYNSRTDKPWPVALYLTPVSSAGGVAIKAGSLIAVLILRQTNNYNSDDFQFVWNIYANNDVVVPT
Procedure: FIG. 16. Inhibitory mAbs interfere with each other's binding to FimH. […] The data shown are mean±SD of triplicates from one representative experiment of multiple experiments that were performed with similar settings.

[7] = tested on: Klebsiella pneumoniae; test: Detachment of 14 h-old Klebsiella biofilm; type: cell-based; details: 14-h-old biofilm, 1% mannose or 50 μg/ml mAb (FIG. 11B)
Procedure: as §3, §4

[8] = tested on: E. coli UTI89; test: Detachment of 16 h-old biofilm on mannan-coated surface; type: cell-based; details: for effect on detachment of pre-formed biofilm: 1% mannose or 50 μg/ml mAb (FIG. 7B)
Procedure: as §4

[9] = tested on: E. coli UTI89; test: Mouse bladder infection, transurethral inoculation of mAb-pretreated bacteria; type: in vivo; details: C57BL/6 mice, 24 h post infection, bacteria pretreated with 500 μg/ml mAb 1 h
Procedure: Infection of 10- to 11-week-old C57BL/6 female mice was performed as described elsewhere (Kisiela, et al. 2013). Briefly, bacteria were grown in LB medium without shaking for 48 h, harvested, washed twice in PBS and resuspended in PBS at a final concentration of 10^8 CFU per ml. Bacteria were pretreated with 500 μg/ml mAbs for 1 h at 37° C. prior to inoculation. Mice were anesthetized with ketamine/xylazine and twenty-five microliters of mAb-pretreated bacteria in PBS were inoculated transurethrally into mouse bladders via catheter. After 24 h, mice were sacrificed and bladders were aseptically removed and homogenized in 1 mL PBS. Serial dilutions were plated and total bacterial load per bladder was calculated. Statistical significance was determined using two-tailed Mann-Whitney test (GraphPad Prism 6.0 software, La Jolla, Ca).

[10] = tested on: E. coli UTI89; test: Biofilm formation on mannan-coated surface; type: cell-based; details: 1% mannose or 50 μg/ml mAb added prior to growth (FIG. 7A)
Procedure: as §4

[11] = tested on: FimH^wt-expressing E. coli; test: Inhibition of bacterial adhesion to surface-immobilized yeast mannan; type: cell-based
Procedure: as §2

Substance	effect on bacterial counts in urine vs mock group [1]	estimated average log10 of bacterial counts in urine ([2]; non-diabetic C57BI/6 mice, day 1 after challenge, 150 μg mAb i.p. 1 day prior and 1 day after challenge) [log10]	estimated log10 bacterial counts in urine ([2]; non-diabetic C57BI/6 mice, day 3 after challenge, 150 μg mAb i.p.) [log10]	effect on bacterial counts in urine vs mock group ([2]; non-diabetic mice, mAb 150 μg i.p. or LD antigen 15 μg s.c.)	effect on Klebsiella adhesion to RNaseB [3]	inhibition of biofilm formation [4]	binding to Klebsiella FimH compared with E. coli FimH [5]	interference with the other inhibitory mAb's binding to FimH [6]	destabilization of pre-formed biofilm [7]	biofilm reduction ([8]; 50 μg/ml mAb (FIG. 7B)) [%]	effect on detachment of pre-formed biofilm [8]	reduction in bacteria recovered from bladder [9] [%]	effect on biofilm formation [10]	difference in inhibitory potency (IC50) mAb926 vs mAb475 [11] [fold]	inhibition of bacterial adhesion at its KD concentration ([11]; antibody at its KD concentration) [%]
mAb926: mouse monoclonal anti-FimH antibody, VL SEQ ID NO: 3, VH SEQ ID NO: 4; non-competitive parasteric inhibitor	reduced bacterial load	1.31±0.5	0.99±0.4	significant decrease of bacterial counts in urine	significantly reduced bacterial adhesion	76-86%	same level of binding to both FimH adhesins	strongly cross-interfere with each other's binding to FimH	significant (P=0.0005) destabilization of the biofilm	93	effective dissolution of the biofilm	83	prevented formation	32	> 50
α-methyl-D-mannopyranoside [mannose, reference compound]	–	–	–	–	–	38-67%	–	–	–	–	neither mAb475 nor soluble mannose caused substantial detachment	–	prevented formation	–	–

From US10722580B2, “Compositions and methods for treatment and prevention of uropathogenic E. coli infection” (UNIVERSITY OF WASHINGTON, priority 2015, dated 2020)
